From patent US20070112032A1, “Prevention and/or reduction of photoreceptor degeneration with retinoids” (priority 2003, published 2007)

Tests used:
[1] = tested on: photoreceptor layer of rats exposed to blue light; test: Blue light (480 nm) photoreceptor damage in rats, retinal structure by histology; format: in vivo, Sprague-Dawley rats; design: key to Protective Activity: * means a protective effect of the photoreceptor layer to damage from blue light radiation.; **: Greater effectiveness is shown by increasing number of *'s.; ***: Greater effectiveness is shown by increasing number of *'s.; X means no such protective effect; conditions: for Protective Activity / thickness of the photoreceptor layer: rats; for Protective Activity: oral dosing 5 days, last dose 2 hours before 8 hours blue light (480 nm, 12000 LUX); for thickness of the photoreceptor layer: FIG. 2, oral 5 days before blue light, tazarotene 3 mg/kg/day, Compound A 10 mg/kg/day, compared with vehicle and antagonists
Method: (§1) Adult male abino Sprague-Dawley rats (weight 400±30 g) were used for the following examples. After 18 hours of dark adaptation, animals were housed in specially designed acrylic cages and exposed to high intensity (12000 LUX) of blue fluorescent light (480 nm) for 8 hours. The light intensity was measured with a digital light meter. Each animal was housed separately. The room was maintained at 73° F. throughout the experiment. Animals were orally dosed with the appropriate retinoid or positive control, i.e. brimonidine, for 5 days with the last dose administered 2 hours before blue-light exposure. After the light exposure, the animals were kept in the dark room and recovered for an additional 5 days. Retinal function was evaluated with flash ERG analysis. Retinal structure was assessed by histology.
The following retinoids were evaluated for preventing damage to the photoreceptor layer of rats subjected to exposure to blue light.
(The RAR agonist, tazarotene, is an RARβ and […] retinioid. The RXR agonist also has some RAR agonist activity.)
In this Example, the above experiment is repeated with the RAR antagonist, which has antagonist activity at the α, β and […] retinoid receptor subtype dosed in combination with the RAR agonist and the RXR agonist.
The following retinoid compounds were tested in the above method with the results reported as shown.

[2] = tested on: photoreceptor layer of rats exposed to blue light; test: Blue light (480 nm) photoreceptor damage in rats, retinal function by flash ERG; format: in vivo, Sprague-Dawley rats; conditions: FIG. 3, ERG wave versus time, oral 5 days before blue light
Method: as §1

[3] = tested on: photoreceptors of rats and mice; conditions: Sparrow PNAS 2003, Sieving PNAS 2001; cited from earlier work

| Compound | Protective Activity [1] | further results |
| --- | --- | --- |
| Cc1ccc(C2CC(C)(C)Oc3c(Br)cc(NC(=O)c4ccc(C(=O)O)c(F)c4)cc32)cc1 (centres unmarked) [Compound D, 2-Fluoro-4-[6′-(2″,2″-dimethyl-4″-tolylchromanyl)-8'-bromo]carbamoyl benzoic acid] | X |  |
| CCCOc1c(\C(CC)=C(F)/C=C/C(C)=C/C(=O)O)cc(C(C)C)cc1C(C)C [Compound B, (2E,4E,6E)-7-(3,5-Diisopropyl-2-propoxy-phenyl)-6-fluoro-3-methyl-nona-2,4,6-trienoic acid] | X |  |
| CCC[C@]1(c2ccc3c(c2)C(C)(C)CCC3(C)C)C[C@H]1/C=C/C(C)=C/C(=O)O [Compound F, 3-Methyl-7-propyl-6(S),7(S)-methano-7[1,1,4,4-tetrametyl-1,2,3,4-tetrahydro-7-yl]-2(E),4(E)-heptadienoic acid] | X |  |
| CC1(C)CCC(C)(C)c2c1cc(C(=O)Nc1cc(F)c(C(=O)O)c(F)c1)c(O)c2Cl [Compound E, 4-[(4-Chloro-3-hydroxy-5,5,8,8-tetramethyl-5,6,7,8-tetrahydro-naphthalene-2-carbonyl)-amino]-2,6-difluoro-benzoic acid] | ** |  |
| CCc1ccc(C2=CC(C)(C)Sc3ccc(C#Cc4ccc(C(=O)O)cc4)cc32)cc1 [Compound C] | X | effect of RAR antagonist on effectiveness of RAR agonist and RXR agonist ([1]; FIG. 5, RAR antagonist dosed in combination with the RAR agonist and the RXR agonist): severely diminishes the effectiveness of both the RAR agonist and the RXR agonists |
| CC(/C=C/[C@@H]1C[C@]1(C)c1ccc2c(c1)C(C)(C)CCC2(C)C)=C\C(=O)O [Compound A, 3,7-Dimethyl-6(S),7(S)-methano-7-[1,1,4,4-tetramethyl-1,2,3,4-tetrahydronaphth-7-yl]-2E, 4E-heptadienoic acid] | ** | thickness of the photoreceptor layer [1]: greater than the photoreceptor layers of the animals dosed with the RAR or RXR antagonists; protective effect to the photoreceptor layer measured by ERG [2]: show a protective effect |
| CC1=C(/C=C/C(C)=C/C=C/C(C)=C\C(=O)O)C(C)(C)CCC1 [isotretinoin, 13-cis retinoic acid] |  | protection of photoreceptors from light damage [3]: can protect photoreceptors of rats and mice from light damage |
| Brc1c(NC2=NCCN2)ccc2nccnc12 [brimonidine, reference compound] |  | thickness of the photoreceptor layer [1]: much greater than the thickness of the photoreceptor layers of the animals dosed with the vehicle alone |
